From patent US12215069B2, “Sirtuin modulating compounds and applications thereof” (Codagen Biosciences, Inc., priority 2022, dated 2025)

How the values were obtained:
Sirt3 [1] = biological target: T1, Sirt3 (Homo sapiens, UniProt Q9NTG7); experiment: Fluorescence-based (FdL) assay of Sirt3 deacylation activity under steady state conditions; type: biochemical; conditions: for remaining activity at 1 µM: compound 1 μM; for remaining activity at 1 µM / remaining activity at 10 µM: read-out: % Control, Sirt3 deacylation activity; for remaining activity at 10 µM: compound 10 μM; for % Control, Sirt3 deacylation activity: compound 50 μM or maximum
T1 construct: The hSirt3^118-399 was purchased from Xtal Biostructures (Natick, MA); purchased Xtal Biostructures (Natick, MA)
T1 sequence (Q9NTG7 118-399): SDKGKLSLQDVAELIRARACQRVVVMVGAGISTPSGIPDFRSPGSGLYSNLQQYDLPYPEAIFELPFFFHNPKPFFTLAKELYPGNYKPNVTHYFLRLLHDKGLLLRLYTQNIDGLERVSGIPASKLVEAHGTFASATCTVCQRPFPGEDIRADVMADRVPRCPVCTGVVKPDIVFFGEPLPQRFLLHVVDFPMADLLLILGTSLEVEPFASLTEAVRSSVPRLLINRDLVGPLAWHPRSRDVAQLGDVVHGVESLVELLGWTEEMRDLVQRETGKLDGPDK
Text: (§1) FdL2 (QPKK^AC-AMC) peptide, also called p53-AMC peptide, was purchased from Enzo Life Sciences (Farmingdale, NY). Carba-NAD was synthesized by Dalton Pharma (Toronto, ON). The hSirt3^118-399 was purchased from Xtal Biostructures (Natick, MA). Virtual screening hits were supplied from ChemBridge Corp. (San Diego, CA).
(§2) Effect of Hit Compounds on hSirt3^118-399 Deacetylation Activity

Sirt3 [2] = biological target: T1, Sirt3; experiment: HPLC assay of Sirt3 deacylation activity under non-steady state conditions; type: biochemical; conditions: compound 10 μM, 2 minute time point, read-out: % Control (10 μM), Sirt3 deacylation activity
Text: as §1, §2

Row | remaining activity at 1 µM (Sirt3 [1]) [%] | remaining activity at 10 µM (Sirt3 [1]) [%] | % Control, Sirt3 deacylation activity (Sirt3 [1]) [%] | remaining activity at 10 µM (Sirt3 [2]; [E]0/[NAD+]0 = 0.3, 50 μM NAD+) [%] | remaining activity at 10 µM (Sirt3 [2]; [E]0/[NAD+]0 = 0.6, 50 μM NAD+) [%] | Structure (SMILES)
1 | 95.7 ± 2.6 | 82.8 ± 2.3 | 73.6 ± 2.4 | 104 ± 3.3 | 107 ± 1.6 | C=C(CC)C(=O)c1ccc(OCC(=O)N[C@H](Cc2ccc(Cl)cc2)C(=O)NCCCC)c(Cl)c1Cl [FIG. 1, (2R)—N-butyl-3-(4-chlorophenyl)-2-[[2-[2,3-dichloro-4-(2-methylenebutanoyl)phenoxy]acetyl]amino]propanamide]
2 | 80.4 ± 3.1 | 75.5 ± 2.3 | 68.7 ± 4.0 |  |  | C=C(CC)C(=O)c1ccc(OCC(=O)NC2c3ccccc3CCc3cc(OCC(=O)NCCCC)ccc32)c(Cl)c1Cl (centres unmarked) [FIG. 28]
